In ChEMBL document CHEMBL3045896, “Synthesis of novel porphyrin-based lipids and their antibacterial activity” (2011):

Assays:
Format in all cases: functional
Settings in all cases: read-out: DIZ
[1] = tested on: Bacillus subtilis; assay: Antibacterial activity against Bacillus subtilis MTCC 619 at 75 ug/ml after overnight incubation by disk diffusion method
[2] = tested on: Klebsiella pneumoniae; assay: Antibacterial activity against Klebsiella pneumoniae MTCC 109 at 75 ug/ml after overnight incubation by disk diffusion method
[3] = tested on: Proteus vulgaris; assay: Antibacterial activity against Proteus vulgaris MTCC 1771 at 75 ug/ml after overnight incubation by disk diffusion method
[4] = tested on: Staphylococcus aureus; assay: Antibacterial activity against Staphylococcus aureus MTCC 96 at 75 ug/ml after overnight incubation by disk diffusion method
[5] = tested on: Escherichia coli; assay: Antibacterial activity against Escherichia coli MTCC 722 at 75 ug/ml after overnight incubation by disk diffusion method
[6] = tested on: Bacillus subtilis; assay: Antibacterial activity against Bacillus subtilis MTCC 619 at 30 ug/ml after overnight incubation by disk diffusion method
[7] = tested on: Klebsiella pneumoniae; assay: Antibacterial activity against Klebsiella pneumoniae MTCC 109 at 30 ug/ml after overnight incubation by disk diffusion method
[8] = tested on: Staphylococcus aureus; assay: Antibacterial activity against Staphylococcus aureus MTCC 96 at 30 ug/ml after overnight incubation by disk diffusion method
[9] = tested on: Proteus vulgaris; assay: Antibacterial activity against Proteus vulgaris MTCC 1771 at 30 ug/ml after overnight incubation by disk diffusion method
[10] = tested on: Escherichia coli; assay: Antibacterial activity against Escherichia coli MTCC 722 at 30 ug/ml after overnight incubation by disk diffusion method

| Compound | zone of inhibition at 75 µg/mL [1] | zone of inhibition at 75 µg/mL [2] | zone of inhibition at 75 µg/mL [3] | zone of inhibition at 75 µg/mL [4] | zone of inhibition at 75 µg/mL [5] | zone of inhibition at 30 µg/mL [6] | zone of inhibition at 30 µg/mL [7] | zone of inhibition at 30 µg/mL [8] | zone of inhibition at 30 µg/mL [9] | zone of inhibition at 30 µg/mL [10] |
| --- | --- | --- | --- | --- | --- | --- | --- | --- | --- | --- |
| CCCCCCCCCCCCCCCCN(CCCCCCCCCCCCCCCC)Cc1c2nc(cc3ccc(cc4nc(cc5ccc1[nH]5)C=C4)[nH]3)C=C2 | 16 mm | 12 mm | 14 mm | 15 mm | 14 mm | – | – | – | – | – |
| CCCCCCCCCCCCCCCCC/C1=c2\cc/c([nH]2)=C(\CCCCCCCCCCCCCCCCC)C2=N/C(=C\C3=NC(=CC3)/C=C3/C=CC1=N3)C=C2 | 14 mm | 10 mm | 12 mm | 13 mm | 13 mm | – | – | – | – | – |
| O=C(N[C@H](CO)[C@H](O)c1ccc([N+](=O)[O-])cc1)C(Cl)Cl [CHLORAMPHENICOL] | – | – | – | – | – | 23 mm | 24 mm | 23 mm | 14 mm | 31 mm |
